In patent publication US11512090B2, “Muscarinic acetylcholine M1 receptor antagonists” (PIPELINE THERAPEUTICS, INC., priority 2018, dated 2022):
Where two headings read alike, the source gives them in different places.

Experiments:
Type in all cases: cell-based
M3 = M3 (Homo sapiens, UniProt P20309); test: In vitro functional assay of muscarinic acetylcholine receptor activity, M3; conditions: antagonist IC50 at M3; read-out: M3 IC50
Protocol: [The procedure below names another target; the source lists this target under the same test.] (§1) CHO-K1 cells stably expressing human M1 receptor with Aequorin (Perkin Elmer) were grown in F12 media, 10% FBS with 0.4 mg/mL geneticin and […]. Cells were grown to confluence and frozen down to be assayed at a later date. On the day of the experiment cells were thawed in a 37° C. water bath, resuspended in DMEM/HAM's F12 with HEPES (Invitrogen)+0.1% protease-free BSA (assay buffer), and spun down to remove freezing media. After centrifugation, supernatant was removed and 12 mL of assay buffer was added. Coelenterazine h (Promega) was added to the cells at a final concentration of 5 uM and incubated for 4 hours at room temperature in the dark. Compound master plate-96 deep well (Corning) were formatted in a 8-point DRC in assay buffer with 0.2% DMSO at a starting concentration of 60 uM (2×). After 4 hours of incubation, cells were plated at a concentration of 5×10^5 cells/well in 96 well white-walled, tissue culture-treated, clear-bottom plates (VWR). Compounds were added to the daughter plate, and cells plus compound were incubated at room temperature for 30 minutes in the dark.
(§2) Calcium flux was measured using the FlexStation 3 (Molecular Devices). To measure the antagonist dose-response, the EC80 of Acetylcholine was injected to the daughter plate using the automated compound transfer function of the Flex Station, and the increase in luminescence was measured over time. Antagonist activity was analyzed as a concentration dependent decrease in the EC80 acetylcholine response. Dose response curves were generated using Prism (GraphPad Software). The IC50 of the compounds was calculated from the dose response curve.

M2 = biological target: T1, M2 (Homo sapiens, UniProt P08172); test: In vitro functional assay of muscarinic acetylcholine receptor activity, M2
T1 sequence (P08172 1-466): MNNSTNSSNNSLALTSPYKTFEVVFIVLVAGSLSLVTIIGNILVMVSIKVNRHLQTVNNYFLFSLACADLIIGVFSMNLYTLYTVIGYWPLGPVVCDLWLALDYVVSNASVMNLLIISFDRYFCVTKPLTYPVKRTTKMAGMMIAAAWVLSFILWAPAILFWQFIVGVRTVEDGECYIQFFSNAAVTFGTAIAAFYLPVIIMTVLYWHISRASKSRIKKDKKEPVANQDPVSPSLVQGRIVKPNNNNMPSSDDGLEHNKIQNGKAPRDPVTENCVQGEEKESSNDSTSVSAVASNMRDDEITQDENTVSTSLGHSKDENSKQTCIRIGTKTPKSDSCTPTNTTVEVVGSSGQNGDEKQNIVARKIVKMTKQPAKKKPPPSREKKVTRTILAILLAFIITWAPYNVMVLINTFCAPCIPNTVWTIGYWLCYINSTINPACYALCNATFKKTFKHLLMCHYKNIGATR
Protocol: [The procedure below names another target; the source lists this target under the same test.] as §1, §2

human M1 receptor = biological target: T2, human M1 receptor (Homo sapiens, UniProt P11229); test: In vitro functional assay of muscarinic acetylcholine receptor activity (aequorin calcium flux, antagonist mode vs EC80 acetylcholine), M1
T2 sequence (P11229 1-460): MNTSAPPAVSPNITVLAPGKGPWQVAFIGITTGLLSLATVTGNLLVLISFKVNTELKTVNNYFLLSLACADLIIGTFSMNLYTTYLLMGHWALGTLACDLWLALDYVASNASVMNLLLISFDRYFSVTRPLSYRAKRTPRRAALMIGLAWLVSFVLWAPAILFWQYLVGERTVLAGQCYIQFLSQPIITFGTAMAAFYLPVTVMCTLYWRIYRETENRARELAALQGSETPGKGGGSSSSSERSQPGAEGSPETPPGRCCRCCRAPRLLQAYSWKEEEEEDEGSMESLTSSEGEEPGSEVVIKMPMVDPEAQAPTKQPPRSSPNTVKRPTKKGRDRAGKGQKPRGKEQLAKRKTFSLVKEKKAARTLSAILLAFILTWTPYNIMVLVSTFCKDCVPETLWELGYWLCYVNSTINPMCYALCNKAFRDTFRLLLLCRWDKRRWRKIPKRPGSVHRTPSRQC
Protocol: as §1, §2

[1] = antagonist IC50 at M2, read-out: M2 IC50
[2] = CHO-K1 cells stably expressing human M1 receptor with Aequorin, decrease in EC80 acetylcholine response, read-out: M1 IC50

Chain of M3 (P20309 whole entry): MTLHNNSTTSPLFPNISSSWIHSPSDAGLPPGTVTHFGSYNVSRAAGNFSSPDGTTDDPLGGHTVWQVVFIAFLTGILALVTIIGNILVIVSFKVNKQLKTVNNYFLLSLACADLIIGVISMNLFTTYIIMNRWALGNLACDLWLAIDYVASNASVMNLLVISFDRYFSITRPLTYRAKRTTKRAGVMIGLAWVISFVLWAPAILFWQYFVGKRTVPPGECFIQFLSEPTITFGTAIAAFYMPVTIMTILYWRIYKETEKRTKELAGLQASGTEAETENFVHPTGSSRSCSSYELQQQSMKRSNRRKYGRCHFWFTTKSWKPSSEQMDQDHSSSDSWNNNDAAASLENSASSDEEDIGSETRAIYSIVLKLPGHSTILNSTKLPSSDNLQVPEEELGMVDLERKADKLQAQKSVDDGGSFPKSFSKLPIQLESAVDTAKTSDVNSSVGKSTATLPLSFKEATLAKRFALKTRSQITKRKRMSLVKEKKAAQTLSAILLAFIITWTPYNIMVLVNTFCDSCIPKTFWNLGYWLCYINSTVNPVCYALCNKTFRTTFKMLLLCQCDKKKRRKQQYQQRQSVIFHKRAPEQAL

Structure (SMILES)	IC50 (M3) [nM]	IC50 (M2; [1]) [nM]	IC50 (human M1 receptor) [nM]	IC50 (human M1 receptor; [2]) [nM]	IC50 (M2) [nM]
N#Cc1ccc(N2C3CCC2CN(C(=O)CCOCc2cccc4ncnn24)C3)nc1 [Example 39, 6-{3-[3-({[1,2,4]triazolo[1,5-a]pyridin-5-yl}methoxy)propanoyl]-3,8-diazabicyclo[3.2.1]octan-8-yl}pyridine-3-carbonitrile]	1000 to 10000	1000 to 10000	< 100		
O=C(N1CC(Oc2cccc3ncccc23)C1)N1C[C@H]2CC[C@@H](C1)N2c1ccc(F)cn1 [Example 50, ((1R,5S)-8-(5-fluoropyridin-2-yl)-3,8-diazabicyclo[3.2.1]octan-3-yl)(3-(quinolin-5-yloxy)azetidin-1-yl)methanone]	> 10000	1000 to 10000		1000 to 10000	
O=C(COCc1cccc2cnccc12)N1C[C@H]2CC[C@@H](C1)N2c1ccc(F)cn1 [Example 47, 1-((1R,5S)-8-(5-fluoropyridin-2-yl)-3,8-diazabicyclo[3.2.1]octan-3-yl)-2-(isoquinolin-5-ylmethoxy)ethan-1-one]	> 10000	1000 to 10000		1000 to 10000	
N#Cc1ccc(N2C3CCC2CN(C(=O)[C@H]2C[C@H](Oc4cccc5ncsc45)C2)C3)nc1 [Example 197, 6-{3-[(1r,3r)-3-(1,3-benzothiazol-7-yloxy)cyclobutanecarbonyl]-3,8-diazabicyclo[3.2.1]octan-8-yl}pyridine-3-carbonitrile]	> 10000	> 10000	100 to 1000		
Cn1cnc2cccc(S(=O)(=O)CCC(=O)N3CCN(c4ccc(C(F)(F)F)cn4)CC3)c21 [Example 149, 3-[(1-methyl-1H-1,3-benzodiazol-7-yl)sulfonyl]-1-{4-[5-(trifluoromethyl)pyridin-2-yl]piperazin-1-yl}propan-1-one]	1000 to 10000	100 to 1000		< 100	
N#Cc1ccc(N2CC3CCC(C2)N3C(=O)CCS(=O)(=O)c2cccc3ncsc23)nc1 [Example 132, 6-{8-{3-(1,3-benzothiazole-7-sulfonyl)propanoyl]-3,8-diazabicyclo[3.2.1]octan-3-yl}pyridine-3-carbonitrile]	1000 to 10000		< 100		100 to 1000
N#Cc1ccc(N2C3CCC2CN(C(=O)CCNCc2cccc4ncsc24)C3)nc1 [Example 29, 6-[3-(3-{[(1,3-benzothiazol-7-yl)methyl]amino}propanoyl)-3,8-diaza-bicyclo[3.2.1]octan-8-yl]pyridine-3-carbonitrile]	1000 to 10000	1000 to 10000	< 100		
Cc1cc(F)cnc1N1CCN(C(=O)CNCc2cccc3ncccc23)[C@@H](C)C1 [Example 13, 1-[(2S)-4-(5-fluoro-3-methylpyridin-2-yl)-2-methylpiperazin-1-yl]-2-[[(quinolin-5-yl)methyl]amino]ethanone]	1000 to 10000	1000 to 10000		100 to 1000	
O=C(CCS(=O)(=O)c1cccc2ncsc12)N1CCN(c2ncc(C(F)(F)F)cn2)CC1 [Example 112, 3-(benzo[d]thiazol-7-ylsulfonyl)-1-(4-(5-(trifluoromethyl)pyrimidin-2-yl)piperazin-1-yl)propan-1-one]	1000 to 10000	> 10000		1000 to 10000	
C[C@@H]1CN(c2ccncc2Cl)CCN1C(=O)CCS(=O)(=O)c1cccc2ncsc12 [Example 19, 3-(1,3-benzothiazole-7-sulfonyl)-1-[(2R)-4-(3-chloropyridin-4-yl)-2-methylpiperazin-1-yl]propan-1-one]	> 10000	100 to 1000		< 100	
C[C@H]1CN(c2ncc(F)cc2C#N)CCN1C(=O)CCCc1cccc2ncccc12 [Example 90, (S)-5-fluoro-2-(3-methyl-4-(4-(quinolin-5-yl)butanoyl)piperazin-1-yl)nicotinonitrile]	> 10000	1000 to 10000		> 10000	
O=C(CCNCc1c(F)ccc2nccn12)N1CC2CCC(C1)N2c1ccc(Cl)cn1 [Example 167, 1-[8-(5-chloropyridin-2-yl)-3,8-diazabicyclo[3.2.1]octan-3-yl]-3-[({6-fluoroimidazo[1,2-a]pyridin-5-yl}methyl)amino]propan-1-one]	> 10000	1000 to 10000	< 100		
Cc1cc(F)cnc1N1CCN(C(=O)CCS(=O)(=O)c2cccc3ncsc23)[C@@H](C)C1 [Example 18, 3-(1,3-benzothiazole-7-sulfonyl)-1-[(2S)-4-(5-fluoro-3-methylpyridin-2-yl)-2-methylpiperazin-1-yl]propan-1-one]	1000 to 10000	1000 to 10000		< 100	
O=C(CCS(=O)(=O)c1cccc2ncsc12)N1CCN(c2ccncc2F)CC1 [Example 16, 3-(benzo[d]thiazol-7-ylsulfonyl)-1-(4-(3-fluoropyridin-4-yl)piperazin-1-yl)propan-1-one]	> 10000	1000 to 10000		100 to 1000	
CN(CCC(=O)N1CC2CCC(C1)N2c1ccc(C#N)cn1)Cc1cccc2ncnn12 [Example 170, 6-(3-{3-[methyl({[1,2,4]triazolo[1,5-a]pyridin-5-yl}methyl)amino]propanoyl}-3,8-diazabicyclo[3.2.1]octan-8-yl)pyridine-3-carbonitrile]	1000 to 10000	1000 to 10000	100 to 1000		
C[C@H]1CN(c2ncc(F)cc2F)CCN1C(=O)CCCc1cccc2ncccc12 [Example 91, (S)-1-(4-(3,5-difluoropyridin-2-yl)-2-methylpiperazin-1-yl)-4-(quinolin-5-yl)butan-1-one]	1000 to 10000	1000 to 10000		100 to 1000	
C[C@@H]1CN(c2ccc(F)c(C#N)c2)CCN1C(=O)CCCc1cccc2ncccc12 [Example 23, (R)-2-fluoro-5-(3-methyl-4-(4-(quinolin-5-yl)butanoyl)piperazin-1-yl)benzonitrile]	1000 to 10000	1000 to 10000		< 100	
O=C(CCNCc1cccc2ncnn12)N1CC2CCC(C1)N2c1ccc(-c2ccccc2)cn1 [Example 193, 1-[8-(5-phenylpyridin-2-yl)-3,8-diazabicyclo[3.2.1]octan-3-yl]-3-[({[1,2,4]triazolo[1,5-a]pyridin-5-yl}methyl)amino]propan-1-one]	1000 to 10000	> 10000		1000 to 10000	
O=C(CCS(=O)(=O)c1cccc2ncsc12)N1CCC2(c3ccc(C(F)(F)F)cn3)CC2C1 (stereo not drawn) [Example 32, 3-(1,3-benzothiazole-7-sulfonyl)-1-{6-[5-(trifluoromethyl)pyridin-2-yl]-3-azabicyclo[4.1.0]heptan-3-yl}propan-1-one]	1000 to 10000	1000 to 10000		100 to 1000	
Cc1cncc(Cl)c1N1CCN(C(=O)CCS(=O)(=O)c2cccc3ncsc23)[C@@H](C)C1 [Example 108, (S)-3-(benzo[d]thiazol-7-ylsulfonyl)-1-(4-(3-chloro-5-methylpyridin-4-yl)-2-methylpiperazin-1-yl)propan-1-one]	1000 to 10000	> 10000		100 to 1000	
COc1cnc2cccc(CNCCC(=O)N3CC4CCC(C3)N4c3ccc(Cl)cn3)c2c1 [Example 178, 1-[8-(5-chloropyridin-2-yl)-3,8-diazabicyclo[3.2.1]octan-3-yl]-3-{[(3-methoxyquinolin-5-yl)methyl]amino}propan-1-one]	> 10000	> 10000	100 to 1000		
Cc1cc(F)cnc1N1CCN(C(=O)CCS(=O)(=O)c2cccc3ncccc23)[C@@H](C)C1 [Example 96, (S)-1-(4-(5-fluoro-3-methylpyridin-2-yl)-2-methylpiperazin-1-yl)-3-(quinolin-5-ylsulfonyl)propan-1-one]	> 10000	1000 to 10000		100 to 1000	
